{"source": "patent US20110021429A1", "about": "“Renoprotection by growth hormone-releasing hormone and agonists” (priority 2007, published 2011)", "key": {"[1]": {"target": "T1, GHRH-R (Rattus norvegicus, UniProt Q02644)", "T1 construct": "endogenous in cells; host or cells: freshly dispersed semi-purified thin limb cells of Henle's loop from the renal medulla of 2-month-old male Sprague Dawley rats", "T1 sequence (Q02644 53-423 isoform Q02644-2)": "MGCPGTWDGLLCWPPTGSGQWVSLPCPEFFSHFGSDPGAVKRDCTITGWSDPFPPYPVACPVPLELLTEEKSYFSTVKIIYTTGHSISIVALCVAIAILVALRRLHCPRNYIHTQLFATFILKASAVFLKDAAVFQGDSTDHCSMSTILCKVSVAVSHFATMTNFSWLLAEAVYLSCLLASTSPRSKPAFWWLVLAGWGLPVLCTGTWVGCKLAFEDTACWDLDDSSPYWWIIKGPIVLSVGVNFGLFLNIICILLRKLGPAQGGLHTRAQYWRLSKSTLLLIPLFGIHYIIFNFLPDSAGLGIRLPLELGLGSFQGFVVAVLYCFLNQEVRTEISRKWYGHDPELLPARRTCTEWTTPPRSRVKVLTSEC", "assay": "GHRH-induced intracellular cAMP production in freshly dispersed semi-purified thin limb cells (EIA)", "type": "cell-based", "protocol": "Cell dispersion of minced medullas to obtain semi-purified thin limb cells was performed as previously described.^33 These cells were used immediately for in vitro determination of basal and rGHRH(1-29)NH2-induced cAMP levels or purified by differential centrifugation for immunocytochemistry, using a continuous gradient of Nycodenz. The gradient was prepared as described by Grupp et al.^55 and thin limb cells were recovered in fraction I of the gradient after centrifugation at 1500 g (16° C., 45 min) and washed twice in HEPES-Ringer buffer (430 g, 16° C., 10 min). Cell viability, assessed by the Trypan Blue exclusion method, was around 95%. When purified thin limb cells were cultured, isolation and purification steps were performed under sterile conditions and media containing antibiotics.\nSensitivity to GHRH was assessed in freshly semi-purified thin limb cells^33 from rats fed a 8%-NaCl diet for 2, 7 or 14 days or the control diet. […] Supernatants were used to quantify immunoreactive cAMP levels (non-acetylated method). Pellets were kept frozen for determination of protein content.^59 Optical densities were measured at 450 nm, using a microplate reader (Bio-Rad, model 3550). […]"}, "[2]": {"system": "thin limbs of Henle's loop cells", "assay": "In vivo BrdU immunolabeling (DNA repair/synthesis) in purified thin limb cells", "set-up": "species or system rat", "conditions": "1 mg/kg BW sc/day, 2 days, 8%-NaCl chow", "protocol": "(§1) Two-month-old male Sprague Dawley rats (Charles River Canada, St-Constant, QC) were kept in temperature- (22° C.), humidity- (65%) and lighting- (12h cycles; lights on at 0700 h) controlled rooms and had free access to standard rat chow (2018 Tecklad global 18% protein rodent diet, containing 0.23% Na^+ and 0.4% Cl^−; Harlan Tecklad, Madison, Wis.) and tap water. Rats were acclimatized ≈3 days before going on a high-NaCl diet or water deprivation. Rats fed the custom-made high-NaCl diet for 2, 7 or 14 (8% NaCl; Harlan Tecklad) were compared to rats fed the custom-made control diet (0.3% NaCl; Harlan Tecklad). They had free access to water. […] Rats used in the first series of experiments, to quantify GHRH-R mRNA levels following a 8%-NaCl diet or a water deprivation, were housed individually in metabolic cages for the entire duration of intervention. Body weight (BW), food and water intakes, and urine volume were recorded daily, and Na^+ levels were analyzed on the last 24h urine sample before sacrifice. Rats used in the 8%-NaCl diet/GHRH study were housed individually in plastic cages and BW and food intake were recorded daily. […]\nBrdU immunolabeling (Roche Diagnostics, Laval, QC, CA) was used to quantify DNA repair/synthesis in purified thin limb cells from rat submitted 2 days to a 8%- or 0.3%-NaCl diet and injected with GHRH or saline. […]"}, "[3]": {"system": "GHRH-R mRNA", "assay": "Renal medulla GHRH-R mRNA levels after in vivo GHRH in high-NaCl fed rats", "set-up": "species or system rat", "conditions": "high-NaCl fed rats injected with GHRH, 1 mg/kg BW sc/day, 2 days", "protocol": "as §1\nTotal RNA from medullas and purified descending and ascending thin limb cells was extracted with TRIzol (Invitrogen Canada, Burlington, ON). […] Tissue GHRH-R and GAPDH mRNA and cRNA external standard levels were quantified by densitometry. […]"}, "[4]": {"assay": "Serum total IGF-1 levels after in vivo GHRH", "set-up": "species or system rat", "conditions": "high-NaCl fed rats injected with GHRH, 1 mg/kg BW sc/day, 2 days", "protocol": "(§2) Two-month-old male Sprague Dawley rats (Charles River Canada, St-Constant, QC) were kept in temperature- (22° C.), humidity- (65%) and lighting- (12h cycles; lights on at 0700 h) controlled rooms and had free access to standard rat chow (2018 Tecklad global 18% protein rodent diet, containing 0.23% Na^+ and 0.4% Cl^−; Harlan Tecklad, Madison, Wis.) and tap water. Rats were acclimatized ≈3 days before going on a high-NaCl diet or water deprivation. Rats fed the custom-made high-NaCl diet for 2, 7 or 14 (8% NaCl; Harlan Tecklad) were compared to rats fed the custom-made control diet (0.3% NaCl; Harlan Tecklad). They had free access to water. Rats deprived of water for 3 or 5 days had free access to 2018 Tecklad rat chow. Rats used in the first series of experiments, to quantify GHRH-R mRNA levels following a 8%-NaCl diet or a water deprivation, were housed individually in metabolic cages for the entire duration of intervention. Body weight (BW), food and water intakes, and urine volume were recorded daily, and Na^+ levels were analyzed on the last 24h urine sample before sacrifice. Rats used in the 8%-NaCl diet/GHRH study were housed individually in plastic cages and BW and food intake were recorded daily. Rats were sacrificed in a block-design fashion between 0900-1130 h, by rapid decapitation. […]"}, "[5]": {"system": "GHRH-R mRNA", "assay": "GHRH-R mRNA levels by real-time RT-PCR in purified thin limb cells after in vivo sc GHRH", "set-up": "species or system rat", "conditions": "2 days; for GHRH-R mRNA levels: 1 mg/kg BW/day sc", "protocol": "as §2, with “decapitation. Pituitaries, kidneys and livers were excised immediately and anterior pituitaries and renal medullas dissected out. Tissues were snap-frozen in liquid nitrogen and stored at −80° C. until RNA extraction.” for “decapitation.”\nTotal RNA from purified thin limb cells was extracted with TRIzol. […] Reverse transcription of 2 μg total RNA was performed using the SuperScript™ II RT kit (Invitrogen) and random hexamer primers, according to the manufacturer's protocol, including RNAse H treatement. mRNA levels of rat GHRH-R and rat GAPDH (internal control) were determined in separate tubes, by real-time PCR, using a 1/150 (GHRH-R) and 1/300 (GAPDH) dilution of the RT product and the reagents from the Quantitect™ SYBR® Green PCR kit (Qiagen, Mississauga, ON, CA), according to the manufacturer's recommendation. […]"}, "[6]": {"system": "CIC-K1 mRNA", "assay": "CIC-K1 mRNA levels by real-time RT-PCR in purified thin limb cells after in vivo sc GHRH", "set-up": "species or system rat", "conditions": "1 mg/kg BW/day sc, 2 days"}, "[7]": {"system": "anterior pituitary GHRH-R mRNA", "assay": "Anterior pituitary GHRH-R mRNA levels after in vivo GHRH", "set-up": "species or system rat", "conditions": "2-day in vivo GHRH", "protocol": "as §1\nTotal RNA was extracted as above. […] Membranes were subsequently washed, exposed to films, stripped and rehybridized with GAPDH 28S probes.^33 Quantification of each GHRH-R mRNA transcript (2.5 and 4 kb), GAPDH mRNA and 28S rRNA levels was performed by densitometry. […]"}, "[8]": {"assay": "Body weight and food intake of rats on 8%-NaCl diet injected with GHRH", "type": "in vivo, rat", "conditions": "2-day 8%-NaCl diet, injected with GHRH or saline", "protocol": "as §2"}, "[9]": {"conditions": "14-day sc administration, cited from earlier work"}}, "note": "No end group written: not given here.", "data": [{"substance": "rGHRH(1-29)NH2 (HADAIFTSSYRRILGQLYARKLLHEIMNR-NH2) [rat growth hormone-releasing hormone fragment 1-29 amide, synthesized in the applicant's laboratory]", "values": [{"measurement": "decrease of GHRH-induced cAMP production", "setting": "[1]; 1 nM and 100 nM, cells from rats fed 2 days 8%-NaCl chow vs control diet", "result": 1.5, "unit": "fold"}, {"measurement": "loss of sensitivity to GHRH (cAMP production)", "setting": "[1]; cells from rats fed the high-salt diet for 7 or 14 days", "result": "reverted"}, {"measurement": "increase in intensity of mitochondrial BrdU immunofluorescence", "setting": "[2]", "result": "≈ 7 times"}, {"measurement": "increase in the number of ascending thin limb cell nuclei and mitochondria immunolabeled to BrdU", "setting": "[2]; vs control groups", "result": 5, "unit": "times"}, {"measurement": "GHRH-R mRNA levels in the renal medulla", "setting": "[3]", "result": "tended to increase"}, {"measurement": "serum total insulin-like growth factor-1 (IGF-1) levels", "setting": "[4]", "result": "not modified"}, {"measurement": "regulation of renal GHRH-R mRNA levels in thin limb cells", "setting": "[5]; 0.5 mg/kg BW/day sc, healthy rats, P<0.01", "result": "up-regulate"}, {"measurement": "GHRH-R mRNA levels", "setting": "[5]; 5 other rats", "result": "decreased"}, {"measurement": "GHRH-R mRNA levels", "setting": "[5]; subgroup of 3 rats", "result": "significantly increased"}, {"measurement": "CIC-K1 mRNA levels", "setting": "[6]; 5 other rats", "result": "without significantly altering"}, {"measurement": "CICK-1 mRNA levels", "setting": "[6]; subgroup of 3 rats", "result": "significantly increased"}, {"measurement": "anterior pituitary GHRH-R mRNA levels", "setting": "[7]", "result": "No significant regulatory effect"}, {"measurement": "body weight (BW)", "setting": "[8]", "result": "No change"}, {"measurement": "food intake", "setting": "[8]", "result": "No change"}, {"measurement": "IGF-I serum levels significantly decreased", "setting": "[9]; 0.5 mg/kg BW/day", "result": "not"}, {"measurement": "IGF-I serum levels", "setting": "[9]; 1 mg/kg BW/day", "result": "significantly decreased"}]}]}
